Patent publication US9464007B2, “Antifungal wallboards and building materials and methods for the production thereof” (priority 2004, dated 2016)
Converted amounts (≈) assume the structure as drawn. “And” between values parts separate entries of the source, which are not always exact repeats. Equal entries are not always repeated. Where two headings read alike, the source gives them in different places.

Legend:
Format in all cases: cell-based
Alternaria tenuissima = assay: Liquid culture assay on 24 well plates, solo ai (EC95/MIC); settings: for EC95: 24° C., 3-6 days; for MIC: Alternaria tenuissima, read-out: MIC Minimal Inhibition concentration
Experimental: (§1) Alternaria tenuissima, Penicillium citrinum, Stachybotrys chartarum, Aspergillus niger and Aureobasidium pullulans were separately cultivated on PDA media to […] sporulation. Spore suspensions were produced for each fungi.
(§2) Test method used: liquid culture assay on 24 well plates.
(§3) For solo (i.e. single) ai testing the formulated fungicide (100 ul) was filled into the 24 well plates (8 different rates: 100-0.05 mg ai/l final volume as described above) and 100 ul distilled water was added. Afterwards 800 ul of 0.3% PDA media was added to the plate. The spore suspension of the specific fungi was added to this media in advance containing approx. 100.000 spores/ml. The 24 well plates were sealed and incubated at 24° C.
(§4) Dependent on the growth properties of each organisms, the evaluation was done after 3 to 6 days, when the surface of the check well was covered with mycelium. The evaluation was performed by assessing the growth of the fungi related to the check growth. The results are expressed as % activity relative to the check (values of 0-100% growth). Afterwards the results were converted in % growth inhibition. EC95 values and also MIC (minimal inhibition concentration) values were derived for each compound.
(§5) For each solo compound a graph was drawn of percentage inhibition against the concentration of the fungicide. […] Also the concentration that gave the minimum inhibition concentration was derived as MIC value

Aspergillus niger [1] = assay: as above; settings: for EC95: 24° C., 3-6 days; for MIC: Aspergillus niger, read-out: MIC Minimal Inhibition concentration
Experimental: as §1, §2, §3, §4, §5

Stachybotrys chartarum [2] = assay: as above; settings: for EC95: 24° C., 3-6 days; for MIC: Stachybotrys chartarum, read-out: MIC Minimal Inhibition concentration
Experimental: as §1, §2, §3, §4, §5

Penicillium citrinum [3] = assay: as above; settings: for EC95: 24° C., 3-6 days; for MIC: Penicillium citrinum, read-out: MIC Minimal Inhibition concentration
Experimental: as §1, §2, §3, §4, §5

Aureobasidium pullulans [4] = assay: as above; settings: for EC95: 24° C., 3-6 days; for MIC: Aureobasidium pullulans, read-out: MIC Minimal Inhibition concentration
Experimental: as §1, §2, §3, §4, §5

Aureobasidium pullulans [5] = assay: Synergy testing of 2-way mixtures, 24 well plates; settings: A. pullulans
Experimental: (§6) For synergism testing of the 2-way mixtures 100 ul of each fungicide were filled into the 24 well plates (8 different rates) and 800 ul of 0.3% PDA media containing the spore suspension was added (see above). Different ratios of the 2 fungicide rates were tested at the same time.
as §1
(§7) For the mixtures of different fungicides the synergism was calculated based on the Colby equation, which is described below: […]
(§8) The fungicidal action to be expected, We, for a given combination of two fungicides can be calculated as follows (see COLBY, S. R. “Calculating synergistic and antagonistic response of herbicide combinations”. Weeds 15, pages 20-22; 1967): We=X+[Y×(100−X)/100] wherein:
(§9) If the activity actually observed is greater than the expected value We, there is a synergistic effect.
(§10) All rates below are expressed as mg ai/l (i.e. ppm).

Stachybotrys chartarum [6] = assay: Fungal growth on agar medium containing fungicide, petri dish, visual assessment; settings: for EC50: 528 h, read-out: Concentration required for 50% Activity; for EC50 / Concentration required for 80% Activity: after 22 days at 25° C.
Experimental: (§11) A fungal growth medium was made comprising yeast extract (4 g) agar (8 g), magnesium sulphate (0.2 g), sodium nitrate (2.4 g), potassium chloride (0.2 g), potassium dihydrogen orthophosphate (0.6 g), glycerol (8 ml), distilled water (390 ml). Fungicides as set out in Tables 1 to 4 were added at levels of 5000, 100, 10, 1, 0.1 and 0.01 mg fungicide/liter of growth medium to give six different growth medium compositions for each fungicide. These growth media containing the fungicide were each put into petri dishes.
(§12) Cladosporium cladosporoides, Oligoporus placenta, Stachybotrys chartarum and Memnionella echinata were separately propagated on Luria agar to suppress sporulation and mycelial plugs were transferred upside down onto the petri dishes containing the growth medium.
(§13) A visual assessment was made of the surface of the petri dishes. The result recorded was the percentage of the surface that remained free of fungus. This was recorded as percentage activity
(§14) For each fungicide, a graph was drawn of percentage activity against concentration of fungicide in the growth medium. From this graph, the concentrations of fungicide required to achieve 50%, 80% and 95% activity was estimated. These figures are given in the results tables.
1. Stachybotrys chartarum; Results after 22 days at 25° C.

Memnionella echinata = assay: as above; settings: after 23 days at 25° C.; for EC50: 552 h, read-out: Concentration required for 50% Activity
Experimental: as §11, §12, §13, §14
2. Memnionella echinata; Results after 23 days at 25° C.

Oligoporus placenta = assay: as above
Experimental: as §11, §12, §13, §14
4. Oligoporus placenta; Results.

Aspergillus niger [7] = assay: Synergy testing of 2-way mixtures, 24 well plates; settings: A. niger; for inh % (DFZ alone): rate (DFZ) 0.8 mg ai/l
Experimental: as §6, §1, §7, §8, §9, §10

Penicillium citrinum [8] = assay: Synergy testing of 2-way mixtures, 24 well plates; settings: P. citrinum, PPZ + DFZ test
Experimental: as §6, §1, §7, §8, §9, §10

[9] = tested on: Cladosporium cladosporioides; assay: Fungal growth on agar medium containing fungicide, petri dish, visual assessment; settings: for EC50: 624 h, read-out: Concentration required for 50% Activity; for EC50 / Concentration required for 80% Activity: after 26 days at 20° C.
Experimental: as §11, §12, §13, §14
3. Cladosporium cladosporioides; Results after 26 days at 20° C.

Stachybotrys chartarum [10] = assay: Synergy testing of 2-way mixtures, 24 well plates; settings: S. chartarum; rate (FDL) 0.05 mg ai/l
Experimental: as §6, §1, §7, §8, §9, §10

[11] = A. tenuissima, rates 0-100 mg ai/l, mean values of n = 5
[12] = A. niger, rates 0-100 mg ai/l, mean values of n = 5
[13] = S. chartarum, rates 0-100 mg ai/l, mean values of n = 5
[14] = P. citrinum, rates 0-100 mg ai/l, mean values of n = 5
[15] = A. pullulans, rates 0-100 mg ai/l, mean values of n = 5

Structure (SMILES)	EC95 (Alternaria tenuissima; A. tenuissima)	MIC (Alternaria tenuissima; [11])	EC95 (Aspergillus niger [1]; A. niger)	MIC (Aspergillus niger [1]; [12])	EC95 (Stachybotrys chartarum [2]; S. chartarum)	MIC (Stachybotrys chartarum [2]; [13])	EC95 (Penicillium citrinum [3]; P. citrinum)	MIC (Penicillium citrinum [3]; [14])	EC95 (Aureobasidium pullulans [4]; A. pullulans)	MIC (Aureobasidium pullulans [4]; [15])	Concentration required for 95% Activity (Stachybotrys chartarum [6])	EC50 (Stachybotrys chartarum [6])	Concentration required for 80% Activity (Stachybotrys chartarum [6])	EC50 (Memnionella echinata)	Concentration required for 80% Activity (Memnionella echinata)	Concentration required for 95% Activity (Oligoporus placenta)	Concentration required for 95% Activity [9]	EC50 [9]	Concentration required for 80% Activity [9]	also measured
Cc1cc(C2CC2)nc(Nc2ccccc2)n1 [Cyprodinil]	>100 mg ai/l	> 100 µg/mL	7.4 mg ai/l	12.5 µg/mL (≈ 55.5 µM)	46 mg ai/l	50 µg/mL (≈ 222 µM)	>100 mg ai/l	> 100 µg/mL	>100 mg ai/l	> 100 µg/mL										inh % (CDL alone) (Aureobasidium pullulans [5]; rate (CDL) 0.8 mg ai/l): 0%; inh % (CDL alone) (Aureobasidium pullulans [5]; rate (CDL) 1.6 mg ai/l): 10%; inh % (CDL alone) (Aureobasidium pullulans [5]; rate (CDL) 3.1 mg ai/l): 10%; inh % (CDL alone) (Aureobasidium pullulans [5]; rate (CDL) 12.5 mg ai/l): 30%; inh % (CDL alone) (Aureobasidium pullulans [5]; rate (CDL) 50 mg ai/l): 30%; inh % (CDL alone) (Aureobasidium pullulans [5]; rate (CDL) 100 mg ai/l): 30%
CC1COC(Cn2cncn2)(c2ccc(Oc3ccc(Cl)cc3)cc2Cl)O1 (centres unmarked) [Difenoconazole]											23 mg/L	0.68 µg/mL (≈ 1.67 µM)	3.5 mg/L	5.4 µg/mL (≈ 13.3 µM)	43 mg/L	<0.1 mg/L	0.79 mg/L	0.04 µg/mL (≈ 0.0985 µM)	0.28 mg/L	inh % (DFZ alone) (Aspergillus niger [7]; DFZ + TBZ test): 10%; inh % (DFZ alone) (Aspergillus niger [7]; PPZ + DFZ test): 30%; inh % (DFZ alone) (Penicillium citrinum [8]; rate (DFZ) 0.05 mg ai/l): 0%; inh % (DFZ alone) (Penicillium citrinum [8]; rate (DFZ) 0.2 mg ai/l): 10%; inh % (DFZ alone) (Penicillium citrinum [8]; rate (DFZ) 0.8 mg ai/l): 30%; inh % (DFZ alone) (Aureobasidium pullulans [5]; rate (DFZ) 0.05 mg ai/l, PPZ + DFZ test): 10%; inh % (DFZ alone) (Aureobasidium pullulans [5]; rate (DFZ) 0.2 mg ai/l, DFZ + FDL test): 70%; inh % (DFZ alone) (Aureobasidium pullulans [5]; rate (DFZ) 0.2 mg ai/l, DFZ + TBZ test, listed as DFZ): 70% and 90%; inh % (DFZ alone) (Aureobasidium pullulans [5]; rate (DFZ) 0.2 mg ai/l, PPZ + DFZ test): 70%; inh % (DFZ alone) (Aureobasidium pullulans [5]; rate (DFZ) 0.8 mg ai/l, DFZ + CDL test): 90%; inh % (DFZ alone) (Aureobasidium pullulans [5]; rate (DFZ) 0.8 mg ai/l, DFZ + TBZ test): 90%; inh % (DFZ alone) (Aureobasidium pullulans [5]; rate (DFZ) 1.6 mg ai/l, DFZ + CDL test): 90%; inh % (DFZ alone) (Aureobasidium pullulans [5]; rate (DFZ) 1.6 mg ai/l, DFZ + TBZ test): 90%; inh % (DFZ alone) (Aureobasidium pullulans [5]; rate (DFZ) 3.1 mg ai/l, DFZ + CDL test): 70%; inh % (DFZ alone) (Aureobasidium pullulans [5]; rate (DFZ) 3.1 mg ai/l, DFZ + FDL test): 70%; inh % (DFZ alone) (Aureobasidium pullulans [5]; rate (DFZ) 3.1 mg ai/l, DFZ + TBZ test): 70%; inh % (DFZ alone) (Aureobasidium pullulans [5]; rate (DFZ) 3.1 mg ai/l, PPZ + DFZ test): 50%
N#Cc1c[nH]cc1-c1cccc2c1OC(F)(F)O2 [Fludioxonil]	1.3 mg ai/l		>100 mg ai/l		0.18 mg ai/l		0.18 mg ai/l		>100 mg ai/l											MIC (Alternaria tenuissima): 1.6 µg/mL (≈ 6.45 µM); MIC (Aspergillus niger [1]): > 100 µg/mL; MIC (Stachybotrys chartarum [2]): 0.2 µg/mL (≈ 0.806 µM); MIC (Penicillium citrinum [3]): 0.2 µg/mL (≈ 0.806 µM); MIC (Aureobasidium pullulans [4]): > 100 µg/mL; inh % (FDL alone) (Aspergillus niger [7]; rate (FDL) 0.05 mg ai/l): 0%; inh % (FDL alone) (Aspergillus niger [7]; rate (FDL) 0.2 mg ai/l): 30%; inh % (FDL alone) (Aspergillus niger [7]; rate (FDL) 0.8 mg ai/l): 30%; inh % (FDL alone) (Aspergillus niger [7]; rate (FDL) 1.6 mg ai/l): 30%; inh % (FDL alone) (Aspergillus niger [7]; rate (FDL) 3.1 mg ai/l): 30%; inh % (FDL alone) (Aspergillus niger [7]; rate (FDL) 12.5 mg ai/l): 30%; inh % (FDL alone) (Aspergillus niger [7]; rate (FDL) 50 mg ai/l): 30%; inh % (FDL alone) (Aspergillus niger [7]; rate (FDL) 100 mg ai/l): 30%; inh % (FDL alone) (Stachybotrys chartarum [10]): 10%; inh % (FDL alone) (Aureobasidium pullulans [5]; rate (FDL) 0.8 mg ai/l): 10%; inh % (FDL alone) (Aureobasidium pullulans [5]; rate (FDL) 1.6 mg ai/l): 10%; inh % (FDL alone) (Aureobasidium pullulans [5]; rate (FDL) 3.1 mg ai/l): 10%; inh % (FDL alone) (Aureobasidium pullulans [5]; rate (FDL) 12.5 mg ai/l): 10%; inh % (FDL alone) (Aureobasidium pullulans [5]; rate (FDL) 50 mg ai/l): 10%; inh % (FDL alone) (Aureobasidium pullulans [5]; rate (FDL) 100 mg ai/l): 10%
CCCC1COC(Cn2cncn2)(c2ccc(Cl)cc2Cl)O1 (centres unmarked) [Propiconazole]											360 mg/L	15 µg/mL (≈ 43.8 µM)	49 mg/L	88 µg/mL (≈ 257 µM)	>100 mg/L	0.4 mg/L	4.5 mg/L	0.19 µg/mL (≈ 0.555 µM)	1.7 mg/L	inh % (PPZ alone) (Penicillium citrinum [8]; rate (PPZ) 0.8 mg ai/l): 70%
c1ccc2[nH]c(-c3cscn3)nc2c1 [Thiabendazole]	>100 mg ai/l	> 100 µg/mL	3.1 mg ai/l	3.1 µg/mL (≈ 15.4 µM)	46 mg ai/l	50 µg/mL (≈ 248 µM)	0.72 mg ai/l	0.8 µg/mL (≈ 3.98 µM)	15 mg ai/l	50 µg/mL (≈ 248 µM)	91 mg/L	17 µg/mL (≈ 84.5 µM)	49 mg/L	28 µg/mL (≈ 139 µM)	65 mg/L	>5000 mg/L	8 mg/L	0.78 µg/mL (≈ 3.88 µM)	3.5 mg/L	inh % (TBZ alone) (Aspergillus niger [7]; rate (TBZ) 1.6 mg ai/l): 10%; inh % (TBZ alone) (Aureobasidium pullulans [5]; rate (TBZ) 12.5 mg ai/l): 70%
